Measurements published in article PMC11842588, “A first-in-class selective inhibitor of ERK1/2 and ERK5 overcomes drug resistance with a single-molecule strategy” (Signal Transduction and Targeted Therapy, 2025).

What was measured:
Test in all cases: Kinase profiling
Type in all cases: biochemical
[1] = molecular target: T1, TBK1(h) (Homo sapiens, UniProt Q9UHD2)
T1 construct: purchased Eurofins Cerep SA (KinaseProfiler)
Procedure: (§1) 380 kinases inhibitory activities of SKLB-D18 were conducted by Eurofins Cerep SA. The result was illustrated by kinase tree (http://www.kinhub.org/kinmap/).

[2] = molecular target: T2, NEK7(h) (Homo sapiens, UniProt Q8TDX7)
T2 construct: purchased Eurofins Cerep SA (KinaseProfiler)
Procedure: as §1

[3] = molecular target: T3, WNK2(h) (Homo sapiens, UniProt Q9Y3S1)
T3 construct: purchased Eurofins Cerep SA (KinaseProfiler)
Procedure: as §1

[4] = molecular target: T4, RIPK2(h) (Homo sapiens, UniProt O43353)
T4 construct: purchased Eurofins Cerep SA (KinaseProfiler)
Procedure: as §1

[5] = molecular target: T5, CaMKIIγ(h) (Homo sapiens, UniProt Q13555)
T5 construct: purchased Eurofins Cerep SA (KinaseProfiler)
Procedure: as §1

[6] = molecular target: T6, TSSK2(h) (Homo sapiens, UniProt Q96PF2)
T6 construct: purchased Eurofins Cerep SA (KinaseProfiler)
Procedure: as §1

[7] = molecular target: T7, MAPKAP-K2(h) (Homo sapiens, UniProt P49137)
T7 construct: purchased Eurofins Cerep SA (KinaseProfiler)
Procedure: as §1

[8] = molecular target: T8, TrkA(h) (Homo sapiens, UniProt P04629)
T8 construct: purchased Eurofins Cerep SA (KinaseProfiler)
Procedure: as §1

[9] = molecular target: T9, Rsk1(h) (Homo sapiens, UniProt Q15418)
T9 construct: purchased Eurofins Cerep SA (KinaseProfiler)
Procedure: as §1

[10] = molecular target: T10, Lyn(h) (Homo sapiens, UniProt P07948)
T10 construct: purchased Eurofins Cerep SA (KinaseProfiler)
Procedure: as §1

[11] = molecular target: T11, NEK1(h) (Homo sapiens, UniProt Q96PY6)
T11 construct: purchased Eurofins Cerep SA (KinaseProfiler)
Procedure: as §1

[12] = molecular target: T12, IGF-1R(h), activated (Homo sapiens, UniProt P08069)
T12 construct: purchased Eurofins Cerep SA (KinaseProfiler)
Procedure: as §1

[13] = molecular target: T13, MSK2(h) (Homo sapiens, UniProt O75676)
T13 construct: purchased Eurofins Cerep SA (KinaseProfiler)
Procedure: as §1

[14] = molecular target: T14, FGFR1(h) (Homo sapiens, UniProt P11362)
T14 construct: purchased Eurofins Cerep SA (KinaseProfiler)
Procedure: as §1

[15] = molecular target: T15, DMPK(h) (Homo sapiens, UniProt Q09013)
T15 construct: purchased Eurofins Cerep SA (KinaseProfiler)
Procedure: as §1

[16] = molecular target: T16, ICK(h) (Homo sapiens, UniProt Q9UPZ9)
T16 construct: purchased Eurofins Cerep SA (KinaseProfiler)
Procedure: as §1

[17] = molecular target: T17, PAK2(h) (Homo sapiens, UniProt Q13177)
T17 construct: purchased Eurofins Cerep SA (KinaseProfiler)
Procedure: as §1

[18] = molecular target: T18, CaMKIδ(h) (Homo sapiens, UniProt Q8IU85)
T18 construct: purchased Eurofins Cerep SA (KinaseProfiler)
Procedure: as §1

[19] = molecular target: T19, PKG1β(h) (Homo sapiens, UniProt Q13976)
T19 construct: purchased Eurofins Cerep SA (KinaseProfiler)
Procedure: as §1

[20] = molecular target: T20, ErbB4(h) (Homo sapiens, UniProt Q15303)
T20 construct: purchased Eurofins Cerep SA (KinaseProfiler)
Procedure: as §1

[21] = molecular target: T21, EphA3(h) (Homo sapiens, UniProt P29320)
T21 construct: purchased Eurofins Cerep SA (KinaseProfiler)
Procedure: as §1

[22] = molecular target: T22, Hck(h) (Homo sapiens, UniProt P08631)
T22 construct: purchased Eurofins Cerep SA (KinaseProfiler)
Procedure: as §1

[23] = molecular target: T23, PRP4(h) (Homo sapiens, UniProt Q13523)
T23 construct: purchased Eurofins Cerep SA (KinaseProfiler)
Procedure: as §1

[24] = molecular target: T24, KDR(h) (Homo sapiens, UniProt P35968)
T24 construct: purchased Eurofins Cerep SA (KinaseProfiler)
Procedure: as §1

[25] = molecular target: T25, A-Raf(h) (Homo sapiens, UniProt P10398)
T25 construct: purchased Eurofins Cerep SA (KinaseProfiler)
Procedure: as §1

[26] = molecular target: T26, VRK1(h) (Homo sapiens, UniProt Q99986)
T26 construct: purchased Eurofins Cerep SA (KinaseProfiler)
Procedure: as §1

[27] = molecular target: T27, GSK3α(h) (Homo sapiens, UniProt P49840)
T27 construct: purchased Eurofins Cerep SA (KinaseProfiler)
Procedure: as §1

[28] = molecular target: T28, IR(h) (Homo sapiens, UniProt P06213)
T28 construct: purchased Eurofins Cerep SA (KinaseProfiler)
Procedure: as §1

[29] = molecular target: T29, NLK(h) (Homo sapiens, UniProt Q9UBE8)
T29 construct: purchased Eurofins Cerep SA (KinaseProfiler)
Procedure: as §1

[30] = molecular target: T30, Tec(h) activated (Homo sapiens, UniProt P42680)
T30 construct: purchased Eurofins Cerep SA (KinaseProfiler)
Procedure: as §1

[31] = molecular target: T31, SAPK2a(h) (Homo sapiens, UniProt Q16539)
T31 construct: purchased Eurofins Cerep SA (KinaseProfiler)
Procedure: as §1

[32] = molecular target: T32, SIK(h) (Homo sapiens, UniProt P57059)
T32 construct: purchased Eurofins Cerep SA (KinaseProfiler)
Procedure: as §1

[33] = molecular target: T33, EphA7(h) (Homo sapiens, UniProt Q15375)
T33 construct: purchased Eurofins Cerep SA (KinaseProfiler)
Procedure: as §1

[34] = molecular target: T34, LKB1(h) (Homo sapiens, UniProt Q15831)
T34 construct: purchased Eurofins Cerep SA (KinaseProfiler)
Procedure: as §1

[35] = molecular target: T35, Fyn(h) (Homo sapiens, UniProt P06241)
T35 construct: purchased Eurofins Cerep SA (KinaseProfiler)
Procedure: as §1

[36] = molecular target: T36, CDK18/cyclinY(h) (Homo sapiens, UniProt Q07002)
T36 construct: purchased Eurofins Cerep SA (KinaseProfiler)
Procedure: as §1

[37] = molecular target: T37, PKBβ(h) (Homo sapiens, UniProt P31751)
T37 construct: purchased Eurofins Cerep SA (KinaseProfiler)
Procedure: as §1

[38] = molecular target: T38, MAPK3(h) (Homo sapiens, UniProt P27361)
T38 construct: purchased Eurofins Cerep SA (KinaseProfiler)
Procedure: as §1

[39] = molecular target: T39, FGFR3(h) (Homo sapiens, UniProt P22607)
T39 construct: purchased Eurofins Cerep SA (KinaseProfiler)
Procedure: as §1

[40] = molecular target: T40, TAK1(h) (Homo sapiens, UniProt O43318)
T40 construct: purchased Eurofins Cerep SA (KinaseProfiler)
Procedure: as §1

[41] = molecular target: T41, Yes(h) (Homo sapiens, UniProt P07947)
T41 construct: purchased Eurofins Cerep SA (KinaseProfiler)
Procedure: as §1

T12 sequence (P08069 31-1367): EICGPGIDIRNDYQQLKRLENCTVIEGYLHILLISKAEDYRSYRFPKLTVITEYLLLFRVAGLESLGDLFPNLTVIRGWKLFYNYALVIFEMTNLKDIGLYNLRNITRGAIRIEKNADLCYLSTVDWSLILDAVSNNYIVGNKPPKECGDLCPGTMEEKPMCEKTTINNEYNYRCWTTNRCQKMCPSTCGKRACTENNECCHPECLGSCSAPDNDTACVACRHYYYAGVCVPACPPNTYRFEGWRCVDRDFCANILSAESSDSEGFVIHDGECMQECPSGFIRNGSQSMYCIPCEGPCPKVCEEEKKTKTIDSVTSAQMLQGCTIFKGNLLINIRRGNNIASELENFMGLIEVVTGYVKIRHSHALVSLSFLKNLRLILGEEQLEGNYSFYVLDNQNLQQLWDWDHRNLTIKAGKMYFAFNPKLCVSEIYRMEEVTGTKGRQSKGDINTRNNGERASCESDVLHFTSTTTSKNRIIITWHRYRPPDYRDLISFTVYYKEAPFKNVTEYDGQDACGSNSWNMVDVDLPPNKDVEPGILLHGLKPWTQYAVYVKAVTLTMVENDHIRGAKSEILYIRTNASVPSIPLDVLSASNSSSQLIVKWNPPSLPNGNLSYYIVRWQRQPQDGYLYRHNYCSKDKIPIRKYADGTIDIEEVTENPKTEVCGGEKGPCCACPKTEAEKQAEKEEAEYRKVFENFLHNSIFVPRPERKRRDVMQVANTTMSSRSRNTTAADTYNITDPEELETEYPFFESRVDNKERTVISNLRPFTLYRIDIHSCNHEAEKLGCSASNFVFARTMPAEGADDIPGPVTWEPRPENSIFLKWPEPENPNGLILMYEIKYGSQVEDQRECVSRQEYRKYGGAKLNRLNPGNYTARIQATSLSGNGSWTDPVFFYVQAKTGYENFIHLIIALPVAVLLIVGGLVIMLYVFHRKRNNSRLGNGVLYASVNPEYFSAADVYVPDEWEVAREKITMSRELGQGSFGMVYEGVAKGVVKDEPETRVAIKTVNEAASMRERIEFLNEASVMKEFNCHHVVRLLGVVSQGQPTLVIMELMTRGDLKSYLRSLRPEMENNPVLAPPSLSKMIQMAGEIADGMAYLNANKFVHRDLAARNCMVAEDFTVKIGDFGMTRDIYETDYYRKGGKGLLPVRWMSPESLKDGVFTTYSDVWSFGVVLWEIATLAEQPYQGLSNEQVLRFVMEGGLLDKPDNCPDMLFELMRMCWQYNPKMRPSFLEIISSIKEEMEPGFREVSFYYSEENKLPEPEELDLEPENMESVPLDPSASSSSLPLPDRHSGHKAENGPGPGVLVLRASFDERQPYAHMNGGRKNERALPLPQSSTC
T9 sequence (Q15418 whole entry): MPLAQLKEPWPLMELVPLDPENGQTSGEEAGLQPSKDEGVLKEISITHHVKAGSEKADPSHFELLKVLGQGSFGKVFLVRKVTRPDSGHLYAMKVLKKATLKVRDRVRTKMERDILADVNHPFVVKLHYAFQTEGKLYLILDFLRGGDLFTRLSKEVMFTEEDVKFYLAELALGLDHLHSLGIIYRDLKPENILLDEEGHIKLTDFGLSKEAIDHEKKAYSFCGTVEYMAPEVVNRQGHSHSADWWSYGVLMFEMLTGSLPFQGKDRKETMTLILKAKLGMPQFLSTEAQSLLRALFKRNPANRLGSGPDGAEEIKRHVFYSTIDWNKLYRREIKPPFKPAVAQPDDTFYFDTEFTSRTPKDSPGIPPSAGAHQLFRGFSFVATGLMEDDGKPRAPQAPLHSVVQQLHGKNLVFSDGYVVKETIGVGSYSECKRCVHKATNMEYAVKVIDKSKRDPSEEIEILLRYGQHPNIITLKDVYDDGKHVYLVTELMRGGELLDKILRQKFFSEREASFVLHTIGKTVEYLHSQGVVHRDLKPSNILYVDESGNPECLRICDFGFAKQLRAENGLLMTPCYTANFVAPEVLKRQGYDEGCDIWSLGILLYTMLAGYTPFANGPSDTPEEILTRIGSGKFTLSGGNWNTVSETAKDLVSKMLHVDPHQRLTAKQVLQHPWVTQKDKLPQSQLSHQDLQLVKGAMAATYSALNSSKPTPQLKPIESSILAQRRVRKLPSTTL
T19 sequence (Q13976 1-686 isoform Q13976-2): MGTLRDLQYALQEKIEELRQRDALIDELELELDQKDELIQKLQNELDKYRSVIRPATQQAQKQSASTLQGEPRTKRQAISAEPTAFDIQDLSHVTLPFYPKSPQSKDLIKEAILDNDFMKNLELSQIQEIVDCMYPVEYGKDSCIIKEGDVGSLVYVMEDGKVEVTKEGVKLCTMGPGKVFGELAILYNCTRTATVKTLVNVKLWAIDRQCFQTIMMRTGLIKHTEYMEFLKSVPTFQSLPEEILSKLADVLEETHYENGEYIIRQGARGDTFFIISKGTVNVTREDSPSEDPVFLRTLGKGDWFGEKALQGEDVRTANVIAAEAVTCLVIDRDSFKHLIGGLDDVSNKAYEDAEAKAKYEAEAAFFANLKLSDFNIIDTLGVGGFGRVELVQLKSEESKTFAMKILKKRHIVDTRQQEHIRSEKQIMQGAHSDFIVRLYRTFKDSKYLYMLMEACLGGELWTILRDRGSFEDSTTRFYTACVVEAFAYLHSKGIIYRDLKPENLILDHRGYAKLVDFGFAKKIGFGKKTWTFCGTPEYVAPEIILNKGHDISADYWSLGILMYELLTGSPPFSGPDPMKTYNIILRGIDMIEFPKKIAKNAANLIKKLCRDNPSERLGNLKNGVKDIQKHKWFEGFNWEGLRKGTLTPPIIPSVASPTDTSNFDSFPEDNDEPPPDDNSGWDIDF
T35 sequence (P06241 whole entry): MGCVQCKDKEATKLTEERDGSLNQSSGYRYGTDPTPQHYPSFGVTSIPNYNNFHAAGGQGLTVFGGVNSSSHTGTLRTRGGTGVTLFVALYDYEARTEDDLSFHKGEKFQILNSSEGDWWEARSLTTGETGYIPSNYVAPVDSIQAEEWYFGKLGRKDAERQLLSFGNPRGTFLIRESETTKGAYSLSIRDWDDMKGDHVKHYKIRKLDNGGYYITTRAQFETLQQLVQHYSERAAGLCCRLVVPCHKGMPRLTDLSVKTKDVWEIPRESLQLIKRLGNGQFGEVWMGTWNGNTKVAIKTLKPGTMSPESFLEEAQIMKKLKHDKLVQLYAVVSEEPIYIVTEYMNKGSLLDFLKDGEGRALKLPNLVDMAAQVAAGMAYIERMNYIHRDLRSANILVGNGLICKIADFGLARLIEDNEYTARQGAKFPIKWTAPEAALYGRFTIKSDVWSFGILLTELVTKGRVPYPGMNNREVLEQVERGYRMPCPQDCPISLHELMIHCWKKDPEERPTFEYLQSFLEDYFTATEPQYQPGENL
T27 sequence (P49840 whole entry): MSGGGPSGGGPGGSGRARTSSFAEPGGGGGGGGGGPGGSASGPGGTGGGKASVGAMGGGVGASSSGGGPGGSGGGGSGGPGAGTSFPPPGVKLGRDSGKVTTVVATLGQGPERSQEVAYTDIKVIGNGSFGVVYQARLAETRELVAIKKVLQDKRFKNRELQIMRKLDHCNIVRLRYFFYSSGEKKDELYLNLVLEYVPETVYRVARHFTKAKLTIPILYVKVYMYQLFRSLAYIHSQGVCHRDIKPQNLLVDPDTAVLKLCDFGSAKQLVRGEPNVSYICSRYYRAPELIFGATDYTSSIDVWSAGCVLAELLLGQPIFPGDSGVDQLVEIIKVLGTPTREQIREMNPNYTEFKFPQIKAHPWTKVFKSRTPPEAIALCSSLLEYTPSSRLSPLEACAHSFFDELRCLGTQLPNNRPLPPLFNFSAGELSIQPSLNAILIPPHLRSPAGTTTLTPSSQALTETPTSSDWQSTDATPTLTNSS
T31 sequence (Q16539 whole entry): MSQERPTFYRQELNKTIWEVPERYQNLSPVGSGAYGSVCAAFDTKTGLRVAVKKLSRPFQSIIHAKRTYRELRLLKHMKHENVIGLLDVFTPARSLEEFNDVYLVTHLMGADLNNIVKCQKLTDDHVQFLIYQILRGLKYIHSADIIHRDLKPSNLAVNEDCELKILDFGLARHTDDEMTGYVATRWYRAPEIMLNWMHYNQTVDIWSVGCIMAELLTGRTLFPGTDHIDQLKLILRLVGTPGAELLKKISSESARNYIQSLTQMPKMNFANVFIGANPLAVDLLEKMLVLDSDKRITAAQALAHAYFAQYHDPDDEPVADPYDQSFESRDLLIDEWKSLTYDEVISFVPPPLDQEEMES
T10 sequence (P07948 whole entry): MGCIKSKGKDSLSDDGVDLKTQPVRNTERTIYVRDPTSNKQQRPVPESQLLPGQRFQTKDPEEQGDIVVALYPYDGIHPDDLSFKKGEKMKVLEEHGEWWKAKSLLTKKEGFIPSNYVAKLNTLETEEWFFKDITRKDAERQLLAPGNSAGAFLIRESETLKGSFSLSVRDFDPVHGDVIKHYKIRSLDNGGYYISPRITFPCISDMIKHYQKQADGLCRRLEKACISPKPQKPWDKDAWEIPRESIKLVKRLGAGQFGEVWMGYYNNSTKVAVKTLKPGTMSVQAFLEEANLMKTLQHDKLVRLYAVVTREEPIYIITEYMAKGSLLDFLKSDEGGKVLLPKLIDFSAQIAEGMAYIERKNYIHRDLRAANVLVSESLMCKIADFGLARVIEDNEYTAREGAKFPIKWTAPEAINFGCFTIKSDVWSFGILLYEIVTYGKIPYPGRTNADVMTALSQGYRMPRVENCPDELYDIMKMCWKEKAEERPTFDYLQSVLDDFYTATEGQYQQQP
T6 sequence (Q96PF2 whole entry): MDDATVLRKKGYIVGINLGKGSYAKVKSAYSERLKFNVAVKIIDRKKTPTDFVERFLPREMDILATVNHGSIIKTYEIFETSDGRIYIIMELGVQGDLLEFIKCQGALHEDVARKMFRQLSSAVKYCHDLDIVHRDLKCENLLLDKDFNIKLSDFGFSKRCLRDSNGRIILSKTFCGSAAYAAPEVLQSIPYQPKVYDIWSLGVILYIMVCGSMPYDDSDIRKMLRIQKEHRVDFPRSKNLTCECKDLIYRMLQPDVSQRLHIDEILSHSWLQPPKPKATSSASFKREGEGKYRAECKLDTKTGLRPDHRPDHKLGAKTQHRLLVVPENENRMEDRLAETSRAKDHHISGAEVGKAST

Q: Which inhibition at 1 µM [1] does the source give for `CN(C)Cc1cccc(Nc2ncc(Cl)c(-c3csc(C(=O)NN4CCOCC4)c3)n2)c1` [SKLB-D18, 4-(5-chloro-2-((3-((dimethylamino)methyl)phenyl)amino)pyrimidin-4-yl)-N-morpholinothiophene-2-carboxamide] here?
A: 64%

Q: What about the inhibition at 1 µM [2] of the same compound?
A: -2%

Q: And the inhibition at 1 µM [3]?
A: 24%

Q: What about the inhibition at 1 µM [4] of the same compound?
A: 61%

Q: What about the inhibition at 1 µM [5] of the same compound?
A: 50%

Q: What about the inhibition at 1 µM [6] of the same compound?
A: -2%

Q: What about the inhibition at 1 µM [7] of the same compound?
A: 1%

Q: And the inhibition at 1 µM [8]?
A: 48%

Q: And the inhibition at 1 µM [9]?
A: 51%

Q: What about the inhibition at 1 µM [10] of the same compound?
A: 60%

Q: And the inhibition at 1 µM [11]?
A: 48%

Q: And the inhibition at 1 µM [12]?
A: 0%

Q: What about the inhibition at 1 µM [13] of the same compound?
A: 16%

Q: And the inhibition at 1 µM [14]?
A: 70%

Q: What about the inhibition at 1 µM [15] of the same compound?
A: 8%

Q: And the inhibition at 1 µM [16]?
A: 20%

Q: What about the inhibition at 1 µM [17] of the same compound?
A: 12%

Q: What about the inhibition at 1 µM [18] of the same compound?
A: 47%

Q: What about the inhibition at 1 µM [19] of the same compound?
A: 4%

Q: What about the inhibition at 1 µM [20] of the same compound?
A: -16%

Q: And the inhibition at 1 µM [21]?
A: 12%

Q: And the inhibition at 1 µM [22]?
A: 20%

Q: What about the inhibition at 1 µM [23] of the same compound?
A: 19%

Q: What about the inhibition at 1 µM [24] of the same compound?
A: 66%

Q: And the inhibition at 1 µM [25]?
A: 63%

Q: And the inhibition at 1 µM [26]?
A: 16%

Q: And the inhibition at 1 µM [27]?
A: 58%

Q: What about the inhibition at 1 µM [28] of the same compound?
A: 0%

Q: And the inhibition at 1 µM [29]?
A: 26%

Q: What about the inhibition at 1 µM [30] of the same compound?
A: 8%

Q: What about the inhibition at 1 µM [31] of the same compound?
A: 9%

Q: And the inhibition at 1 µM [32]?
A: 26%

Q: And the inhibition at 1 µM [33]?
A: 38%

Q: And the inhibition at 1 µM [34]?
A: 29%

Q: And the inhibition at 1 µM [35]?
A: 60%

Q: And the inhibition at 1 µM [36]?
A: 48%

Q: And the inhibition at 1 µM [37]?
A: -12%

Q: What about the inhibition at 1 µM [38] of the same compound?
A: 96%

Q: What about the inhibition at 1 µM [39] of the same compound?
A: 55%

Q: And the inhibition at 1 µM [40]?
A: 64%

Q: What about the inhibition at 1 µM [41] of the same compound?
A: 65%
